Where two headings read alike, the source gives them in different places.
Assays:
L02 cells [1] = assay: FFA-induced lipid accumulation model in L02 cells (TG and ALT kits, Oil Red O); format: cell-based, human; details: 0.9 mM FFA
Procedure: Free fatty acids (FFAs, OA:PA = 2:1) were used to induce the lipid model in L02 cells (Guangzhou Huatuo Biological Technology Co., Ltd., Guangzhou, China). The L02 cells (1 × 10^5 cells/mL) were inoculated in 12-well plates. After 24 h, the cells were starved for 12 h and then treated with DMSO or FFAs for 24 h. Subsequently, the cells were exposed to fenofibric acid (100 μM) or 3d (10, 20, 40 μM) for another 24 h.
The cells were collected and lysed using cell lysis solution; the supernatants were subjected to triglycerides (TGs) and alanine aminotransferase (ALT) kit assays. Moreover, following the completion of the treatment, the cells were fixed with 4% paraformaldehyde and stained with an Oil Red O, with the objective of observing the morphology under an inverted microscope.

L02 cells [2] = assay: Effect of 3d on L02 cell proliferation/survival (Figure 1C); format: cell-based, human; details: 3d alone
RAW264.7 cells = assay: LPS-induced RAW264.7 cell inflammation model (TNF-α, NO, IL-6 in supernatant); format: cell-based
Procedure: RAW264.7 cells were bought from Guangzhou Huatuo Biological Technology Co., Ltd. (Guangzhou, China). RAW264.7 cells (1 × 10^5 cells/mL) were inoculated in 24-well plates. After 24 h, LPS (1 μg/mL) was added to induce cell inflammation. Subsequently, curcumin (100 μM), fenofibric acid (FA, 100 μM), or 3d (10, 20, 40 80 μM) was added for 24 h. The cell supernatant was collected for analysis of inflammatory factors, including nitric oxide (NO), interleukin-6 (IL-6), and tumor necrosis factor (TNF-α).

L02 cells [3] = assay: ROS assay (DCFH-DA, flow cytometry) in FFA-treated L02 cells; format: cell-based, human; details: FFA-induced L02 cells
From the text: (§1) L02 cells were inoculated in 6-well plates at 1 × 10^5 cells/mL, and after completing the lipid-accumulating cell modeling treatment according to the method described in 2.1, the cells were collected and washed with 1× PBS buffer.
Reactive oxygen species (ROS) assay: ROS production was detected in the collected cells using a DCFH-DA fluorescent probe diluted in serum-free medium, and the stained cells were washed with 1× PBS buffer 3 times and then analyzed by flow cytometry.

L02 cells [4] = assay: Apoptosis test (Annexin V/PI, flow cytometry) in FFA-treated L02 cells; format: cell-based, human; details: after FFA treatment
Procedure: as §1
Apoptosis test: Binding Buffer was used to resuspend the modeling-treated cells, cells were stained with Annexin V/PI, and apoptosis was determined using flow cytometry.

L02 cells [5] = assay: Mitochondrial membrane potential test (JC-1) in FFA-treated L02 cells; format: cell-based, human; details: FFA-induced depolarization; 3d 20 μM
Procedure: as §1
Mitochondrial membrane potential (MMP) test: After the cells were co-incubated with FFAs and drugs for 24 h, the remaining medium was discarded and the cells were washed with 1× PBS buffer before being treated with JC-1 probe dye. A laser confocal microscope was used to take photographs, which were quantitatively analyzed using ImageJ software (V. 1.52a, Wayne Rasband National Institutes of Health, Bethesda, MD, USA).

gut microbiota = assay: Gut microbiota composition by 16S rRNA sequencing in MASH mice; format: in vivo
Procedure: Proteome sequencing of liver tissue samples was performed according to the specific requirements of the protocol by Beijing Qinglian Baiao Biotechnology Co., Ltd. (Beijing, China). Mouse fecal samples were collected and frozen in liquid nitrogen and stored at −80 °C.
Total DNA was extracted by QIAamp DNA Stool Mini Kit, homogenized by lysis buffer, digested by proteinase, and purified by a centrifugal column and then passed through NanoDrop and agarose gel electrophoresis for quality control. PCR amplification was performed with primers specific to the V3-V4 region of the bacterial 16S rRNA gene (341F: 5′-CCTAYGGGRBGCASCAG-3′; 806R: 5′-[…]-3′), and the reaction system consisted of 2 × Taq PCR Master Mix, and the program was 95 °C pre-denaturation for […] (95 °C for 30 s, 55 °C for 30 s, 72 °C for 45 s) and extension at 72 °C for 10 min. After purification, bipartite sequencing was performed using the Illumina MiSeq PE300 platform. After QIIME2 quality control, the raw data were clustered into OTUs with 97% similarity, and the species were annotated based on the Silva database to analyze the Alpha/Beta diversity and differential flora.

[6] = In vitro stability in DMEM medium, simulated gastric fluid and simulated intestinal fluid (HPLC); format: in vitro ADME; details: 40 μM, 37 °C
Procedure: Elafibranor and 3d (40 μM) were dissolved in DMEM medium, as well as in simulated gastric fluid (SGF) and simulated intestinal fluid (SIF), respectively, at 37 °C. The concentration of the compounds was determined within 24 h by HPLC. The HPLC conditions comprised an ACQUITY UPLC BEH C18 column maintained at 40 °C with a mobile phase consisting of 20% ultrapure water and 80% acetonitrile, with a flow rate of 1 mL/min at 360 nm.

[7] = Pharmacokinetics of 3d in male SD rats, tail vein injection; format: in vivo; details: 30 mg/kg; for half-life: SD, iv
Procedure: The pharmacokinetics of 3d in vivo were evaluated using male SD rats. Following a 12 h fast, the rats were administered 3d (30 mg/kg) via gavage or tail vein injection, respectively, and blood samples were collected within 24 h for analysis of 3d blood concentration via HPLC. The PK parameters were calculated using the DAS 3.0, and oral bioavailability (F) was obtained by the following formula.F = AUCpo × Di.v/AUCi.v × Dpo × 100%(1)

[8] = LPSs-induced, RAW264.7 macrophages, p < 0.01
[9] = male, rat, blood, SD rats, intravenous

- concentration in culture medium (stability) ([6]; DMEM, within 24 h): remained relatively constant
- concentration in gastric fluid (stability) ([6]; SGF): decreased significantly after 60 min
- concentration in intestinal fluid (stability) ([6]; SIF, within 24 h): remained relatively constant
- AUC(0-t) ([7]; SD rats, intravenous): 108,480 ng/L*min
- AUC(0-∞) ([7]; SD rats, intravenous): 136,923 ng/L*min
- AUMC(0-t) ([7]; SD rats, intravenous): 11,816,712
- AUMC(0-∞) ([7]; SD rats, intravenous): 29,781,860
- Cz ([7]; SD rats, intravenous): 107 ng/L
- VRT(0-t) ([7]; SD rats, intravenous): 10,194 min^2
- VRT(0-∞) ([7]; SD rats, intravenous): 66,630 min^2
- Zeta ([7]; SD rats, intravenous): 0.004 min⁻¹
- half-life ([7]; male, rat, blood, SD rats, intravenous, read-out: T1/2): 3.03 h
- half-life ([7]; male, rat, blood, rats, intravenous administration, read-out: half-life (converted)): 3 h
- Cmax [7, 9]: 1.09 ng/mL
- Tmax [7, 9]: 5 min
- MRT last ([7]; male, rat, blood, SD rats, intravenous, read-out: MRT(0-t) (converted)): 1.8 h
- MRT inf ([7]; male, rat, blood, SD rats, intravenous, read-out: MRT(0-∞) (converted)): 3.62 h
- AUC intravenous relative to oral administration ([7]; rats): four times greater
Compound: CNc1ccc(C(=O)/C=C/c2cc(C)c(OC(C)(C)C(=O)OC(C)(C)C)c(C)c2)cc1 [3d]
- intracellular lipid accumulation (Oil Red O morphology) (L02 cells [1]): diminished intracellular lipid accumulation
- ALT activity (L02 cells [1]; 3d 10, 20, 40 μM, 24 h): notable reduction
- intracellular TG levels (L02 cells [1]; 3d 10, 20, 40 μM, 24 h): notable reduction
- cell survival of L02 cells (L02 cells [2]): significantly increased cell survival
- levels of each inflammatory factor (TNF-α, NO, IL-6) (RAW264.7 cells; LPS 1 μg/mL, 3d 10, 20, 40, 80 μM, 24 h): significantly reduced
- IL-6 reduction (RAW264.7 cells; [8]): 48%
- NO decrease (RAW264.7 cells; [8]): 51%
- TNF-α reduction (RAW264.7 cells; [8]): 63%
- intracellular ROS levels (L02 cells [3]): significant decrease in ROS levels
- apoptosis (L02 cells [4]): decrease to near-normal levels
- mitochondrial membrane potential (L02 cells [5]): partially restored
- Bifidobacterium rise (gut microbiota): 1.9 fold
- Lactobacillus increase (gut microbiota): 2.7 fold
- Proteobacteria decrease (gut microbiota; p < 0.05): 68%
- abundance of Firmicutes and Actinobacteria (gut microbiota; phylum level): significantly increased
- abundance of Proteobacteria and Deferribacteres (gut microbiota; phylum level): significantly reduced and returned to normal levels
- Shannon index (gut microbiota; α-diversity): decreased
- Simpson index (gut microbiota; α-diversity): increased
- community richness, Chao1 and ACE indices (gut microbiota; α-diversity): no significant effect
